The values that follow are results of earlier work, collected in patent US20160082019A1, “Drug Combinations to Treat Cancer” (EXELIXIS, INC., priority 2013, published 2016).

Molecules are shown by their SMILES.

For this data set the following is noted: cabozantinib alone; in some cases normalized; independent of PSA declines.

For the molecule `COc1cc2nccc(Oc3ccc(NC(=O)C4(C(=O)Nc5ccc(F)cc5)CC4)cc3)c2cc1OC` [Cabozantinib, N-(4-{[6,7-bis(methyloxy)quinolin-4-yl]oxy}phenyl)-N′-(4-fluorophenyl)cyclopropane-1,1-dicarboxamide], the “uptake on bone scans” value is listed as “decrease uptake on bone scans”.
